Assay results taken from patent publication EP1903028A1, “Conjugates of glutamate and NMDA receptor channel blockers without excito-toxic effects” (Tschollar,, Werner, priority 2006, dated 2008).
Like-named read-outs stand apart in the source and are kept apart here.

Assays:
aminopeptidase A = molecular target: T1, aminopeptidase A (Rattus norvegicus, UniProt P50123); type: in vitro ADME
T1 construct: Hippocampi were removed on ice and coronal slices chopped (0.40 mm thick); from tissue; host or cells: rat hippocampal slices
T1 sequence (P50123 whole entry): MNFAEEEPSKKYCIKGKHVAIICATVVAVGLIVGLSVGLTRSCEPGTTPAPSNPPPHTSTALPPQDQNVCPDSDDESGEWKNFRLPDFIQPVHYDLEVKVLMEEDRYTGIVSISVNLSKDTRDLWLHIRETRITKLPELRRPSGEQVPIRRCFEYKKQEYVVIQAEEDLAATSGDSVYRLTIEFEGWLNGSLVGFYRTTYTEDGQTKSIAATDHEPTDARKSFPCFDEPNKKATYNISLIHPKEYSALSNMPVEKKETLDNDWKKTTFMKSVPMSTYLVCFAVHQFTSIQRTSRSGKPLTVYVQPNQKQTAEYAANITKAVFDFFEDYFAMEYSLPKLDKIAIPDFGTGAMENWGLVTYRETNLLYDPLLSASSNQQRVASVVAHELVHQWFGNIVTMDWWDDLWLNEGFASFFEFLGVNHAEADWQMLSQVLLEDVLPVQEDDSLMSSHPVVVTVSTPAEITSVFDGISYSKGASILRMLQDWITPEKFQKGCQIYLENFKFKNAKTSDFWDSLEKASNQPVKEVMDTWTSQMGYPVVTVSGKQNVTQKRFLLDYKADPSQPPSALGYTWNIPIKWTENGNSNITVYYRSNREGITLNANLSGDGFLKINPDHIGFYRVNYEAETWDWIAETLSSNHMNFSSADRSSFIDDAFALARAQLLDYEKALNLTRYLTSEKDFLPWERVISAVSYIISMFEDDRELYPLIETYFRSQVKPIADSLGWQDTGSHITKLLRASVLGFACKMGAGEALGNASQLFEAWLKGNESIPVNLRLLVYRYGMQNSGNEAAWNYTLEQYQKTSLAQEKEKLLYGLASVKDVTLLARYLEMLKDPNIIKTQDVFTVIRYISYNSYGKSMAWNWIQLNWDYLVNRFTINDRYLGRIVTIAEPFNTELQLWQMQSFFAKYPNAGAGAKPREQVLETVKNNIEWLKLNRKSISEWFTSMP
Procedure: Animals were housed in plastic cages, with free access to standard laboratory food and water, under controlled conditions of lighting, humidity and temperature. Rats were killed by decapitation and brains were quickly removed and immediately transferred in ice-cold artificial cerebrospinal fluid (aCSF) having the following composition (mM):125 NaCl, 3 KCl, 1.2 CaCl2, 1.2 MgSO4, 1 NaH2PO4, 22 NaHCO3 and 10 glucose (aerated with 95% O2 and 5% CO2 at 37°C), pH 7.2-7.4. Hippocampi were removed on ice and coronal slices chopped (0.40 mm thick). Slices were then incubated for 1 h in the presence of a 95% O2and 5% CO2 current (37°C). After washing with fresh aCSF (37°C), slices were transferred to a modified 24 chamber's cell culture well (2 slices per chamber) adapted to accept a constant current of 95% O2 and 5% CO2 all experiment time long. 2 ml aCSF was present in each chamber. Some experiments were performed in a modified aCSF containing 1mM EGTA in the absence of Ca^2+ ions. Drugs were added immediately before slices. After 1h incubation at 37°C, 80 µl aCSF per chamber was drawn in order to evaluate the metabolization time-course. After 3h incubation the experiment ended with a new 80 µl drawing.
Rat hippocampal slices, incubated in physiological conditions (95% 02; 5% CO2 at 37°C, pH 7.2-7.4), metabolized Compound 1 ((S)-4-amino-5-[(4,4-dimethylcyclohexyl)-amino]-5-oxo-pentanoic acid) into Compound 2 (4,4-dimethyl-cyclohexamine) + glutamic acid. After 1h incubation 2,5% ± 0,3% (n=2) Compound 1 was cleaved to yield Compound 2. After 3h incubation 9,0% ± 0,0% (n=2) Compound 1 was cleaved to Compound 2. In the presence of 3 µM amastatin, a selective inhibitor of aminopeptidase A, the cleavage of Compound 1 at 1h and 3h was reduced to 0,5% and 2,0%, respectively (see Figure 2). […] Since aminopeptidase A is a Ca++-dependent enzyme, the cleavage of Compound 1 was then examined under Ca++ -free conditions. In the absence of Ca++ ions, Compound 1 cleavage was inhibited by 76% at 1h and 3h. Aminopeptidase A therefore appears to be the principal enzyme responsible for the cleavage of Compound 1 into Compound 2 plus glutamate.

CA1 pyramidal neurons = test: NMDA excito-toxicity in hippocampal slices in vitro (area of CA1 pyramidal neurons); type: cell-based, rat; conditions: 100 µM NMDA, compound added 15 min prior, 45 min incubation
Procedure: In this experiment, slices were obtained from hippocampi of young (8 day old) rats. After one hour of pre-incubation, NMDA was added to give a final concentration of 100 µM. Either Compound 1 or Compound 2 was added 15 min prior to NMDA and the incubation was carried out for 45 min. Three slices of each sample were collected and fixed with glutaraldehyde (5%). After embedding and freezing, sections (4 µm) were stained with Cresyl violet. Neuronal injury was studied with light microscopy using an imaging analyser (Kontron, KS300). The area occupied by CA1 pyramidal neurons was measured in an analyser-defined field. The pattern of hippocampal neuro-degeneration following NMDA-stimulation consisted of a significant decrease in neuronal nuclei area. […] In contrast, Compound 1 had no effect on NMDA-induced neuronal damage (results not shown).

[1] = Electroconvulsive shock-induced memory impairment; type: in vivo; conditions: Compound 1: 3, 10 and 30 mg/kg; significant at 10 and 30 mg/kg (P <0.05, P <0.01)
Procedure: (§1) The cleavage is inhibited by the specific aminopeptidase A inhibitor amastatin. The amount of Compound 2 produced by cleavage of Compound 1 after 3 hours incubation with hippocampal slices is shown. AMA=Amastatin. • FIGS. 3A,B show inhibition of NMDA function by Compound 2. […] Effects of Compound 2 on [^3H]MK-801 binding enhanced by glycine (panel A), glutamate (panel B) and spermine (panel C). […] The 3H-MK-801 concentration was approx. 3 nM in all the experiments. […] Effect of Compound 1 administered i.p. twice a day (30 min before session and at 5.00 p.m.) for 4 days. […] Data are Mean ± s.e.m. of the efficiency indexes grouped in 2-day intervals. […] Values represent the median latency (sec) to enter the shock compartment and interquartile ranges. †P <0.05 vs. scopolamine + (FS), ‡P < 0.01 vs. saline + (FS) (log rank test). […] Values represent the median latency (s) to enter the shock compartment and interquartile ranges. **P < 0.01 vs. vehicle no ECS, †P< 0.05 and ‡P< 0.01 vs. vehicle + ECS (log rank test).
In another model of memory impairment, electroconvulsive shock was employed as a memory de-stabilizer. […] For doses of 10 and 30 mg/kg the effect was statistically significant (P <0.05 and P <0.01, respectively) (see Figure 7B).

rats [2] = test: Lever-holding operant behaviour (Skinner Box); type: in vivo; conditions: 3-10-30 mg/kg i.p., 14 days, p=0.007 versus control
Procedure: In a further test of learning, lever-holding operant behaviour was tested in a standard rodent operant conditioning chamber (Skinner Box). Rats were trained to press the lever for water reward on a continuous reinforcement schedule, for which each lever pressing was rewarded. Daily sessions lasted 30 min and were performed under a green light. Water was restricted to a 30 min post-session period. After two days of stabilisation, rats were subjected to a visual discrimination schedule, in which a green light signalled the availability of the reinforcement for 60 sec, followed by a 30 sec interval with no reinforcement. Daily sessions lasted 30 min and were repeated for 14 days. Data were expressed as the Efficiency Index, which is a ratio of reinforced (correct responses during a session) to non-reinforced responses.

rats [3] = test: Scopolamine-induced memory impairment, passive avoidance; type: in vivo; conditions: Compound 1: 1 and 10 mg/kg, i.p.; significant (p<0.05) at 10 mg/kg
Procedure: as §1
In this experiment, Compound 1 was tested to determine whether it could reverse scopolamine-induced memory impairment in a passive-avoidance paradigm in rats.

rats [4] = test: Radial maze learning test; type: in vivo; conditions: for test acquisition in the radial maze: Compound 1: 1-30 mg/kg, versus control animals
Procedure: In another experiment of learning, a radial maze test was used. The radial maze consisted of eight arms radiating from a centre platform. The platform was 40 cm in diameter and the eight arms were 60 cm long, 13 cm wide, with walls 10 cm high. The surface of the maze was elevated 50 cm from the floor. Plastic food cups (4 cm in diameter) were at the end of each arm. One 50 mg micro-pellet was placed in a cup at the beginning of each trial. In the training session, the rat was placed in the centre of the platform facing arm #4 and allowed to freely explore the maze. The animal was left in the maze until it ate all of the 24 pellets placed three per arm.

in vivo = conditions: rat, 30 mg/kg
Procedure: The average (± s.e.m.) plasma and cerebrospinal fluid levels of Compound 1, after a single i.p. or oral administration of 30 mg/kg plotted against time (h), are given in Figure 1. Compound 1 appeared in plasma shortly after both oral and i.p. administration, with a lag-time of 0.12 h. […] Compound 1 crossed the blood-CSF barrier very rapidly, showing lag times of 0.1-0.23 h after oral and i.p. administration, respectively. The maximum concentration of Compound 1 in the CSF was reached 45-60 min after oral and i.p. administration. […] Compound 1 therefore efficiently crosses into the CSF in rats.

rats [5] = test: Step-through active avoidance test (acquisition of active avoidance behaviour); type: in vivo; conditions: for percent of conditioned avoidance: Compound 1: 3 and 10 mg/kg i.p. twice a day, 5 days, p<0.001
Procedure: as §1
The acquisition of active avoidance behaviour was evaluated during one 40-trial daily session for 5 consecutive days. Compound 1, when given at doses of 3 and 10 mg/kg, increased the percent of conditioned avoidance (see Figure 6A).

[6] = test system: gerbils subjected to bilateral occlusion of the carotid arteries; test: Neuro-protection after bilateral occlusion of the carotid arteries in vivo; design: species or system Mongolian gerbils
Procedure: This experiment investigated the neuro-protective effects of Compound 2 in gerbils subjected to bilateral occlusion of the carotid arteries. Mongolian gerbils were anaesthetised with halothane and the right and left common carotid arteries were occluded for a period of 5 min. […] The brains were cut into 10 µm-thick sections in the area of the hippocampus and sections were stained with cresyl violet. Quantitative assessment of area occupied by CA pyramidal neurons was performed using an image analyser (Kontron, KS300). For each animal, measurements were made in a defined field from both hippocampi in 4 coronal sections. The raw data were represented by the mean of 8 measures. The pattern of hippocampal neuro-degeneration following ischemia consisted of a significant decrease of neuronal nuclei area.
Compound 2 at a dose of 16 mg/kg, was 100% protective (see Figure 5).

NMDA receptor = test: [3H]MK-801 binding to washed rat cortical membranes enriched for NMDA receptors; conditions: binding enhanced by glycine, glutamate or spermine; 10, 100, 1000 µM Compound 2; approx. 3 nM 3H-MK-801
Procedure: as §1
MK-801 (dizocilpine) is an open-channel ligand of the NMDA Ca channel. Washed rat cortical membranes enriched for NMDA receptors were incubated with increasing concentrations of the co-agonists glycine or glutamate, or the positive modulator spermine, and Compound 2. The binding of ^3H MK801 was then measured. […]

NMDAR (subtype NR1/NR2A) = molecular target: T2, NMDAR (subtype NR1/NR2A) (Homo sapiens, UniProt Q05586+Q12879); test: Glutamate-evoked currents in NMDA receptor-transfected oocytes; type: cell-based; conditions: glutamate 10uM, 100uM glycine, read-out: IC50, inhibition of glutamate-stimulated Ca current
T2 construct: expressed in transfected cells
T2 sequence (Q12879 23-1464, other chains not shown): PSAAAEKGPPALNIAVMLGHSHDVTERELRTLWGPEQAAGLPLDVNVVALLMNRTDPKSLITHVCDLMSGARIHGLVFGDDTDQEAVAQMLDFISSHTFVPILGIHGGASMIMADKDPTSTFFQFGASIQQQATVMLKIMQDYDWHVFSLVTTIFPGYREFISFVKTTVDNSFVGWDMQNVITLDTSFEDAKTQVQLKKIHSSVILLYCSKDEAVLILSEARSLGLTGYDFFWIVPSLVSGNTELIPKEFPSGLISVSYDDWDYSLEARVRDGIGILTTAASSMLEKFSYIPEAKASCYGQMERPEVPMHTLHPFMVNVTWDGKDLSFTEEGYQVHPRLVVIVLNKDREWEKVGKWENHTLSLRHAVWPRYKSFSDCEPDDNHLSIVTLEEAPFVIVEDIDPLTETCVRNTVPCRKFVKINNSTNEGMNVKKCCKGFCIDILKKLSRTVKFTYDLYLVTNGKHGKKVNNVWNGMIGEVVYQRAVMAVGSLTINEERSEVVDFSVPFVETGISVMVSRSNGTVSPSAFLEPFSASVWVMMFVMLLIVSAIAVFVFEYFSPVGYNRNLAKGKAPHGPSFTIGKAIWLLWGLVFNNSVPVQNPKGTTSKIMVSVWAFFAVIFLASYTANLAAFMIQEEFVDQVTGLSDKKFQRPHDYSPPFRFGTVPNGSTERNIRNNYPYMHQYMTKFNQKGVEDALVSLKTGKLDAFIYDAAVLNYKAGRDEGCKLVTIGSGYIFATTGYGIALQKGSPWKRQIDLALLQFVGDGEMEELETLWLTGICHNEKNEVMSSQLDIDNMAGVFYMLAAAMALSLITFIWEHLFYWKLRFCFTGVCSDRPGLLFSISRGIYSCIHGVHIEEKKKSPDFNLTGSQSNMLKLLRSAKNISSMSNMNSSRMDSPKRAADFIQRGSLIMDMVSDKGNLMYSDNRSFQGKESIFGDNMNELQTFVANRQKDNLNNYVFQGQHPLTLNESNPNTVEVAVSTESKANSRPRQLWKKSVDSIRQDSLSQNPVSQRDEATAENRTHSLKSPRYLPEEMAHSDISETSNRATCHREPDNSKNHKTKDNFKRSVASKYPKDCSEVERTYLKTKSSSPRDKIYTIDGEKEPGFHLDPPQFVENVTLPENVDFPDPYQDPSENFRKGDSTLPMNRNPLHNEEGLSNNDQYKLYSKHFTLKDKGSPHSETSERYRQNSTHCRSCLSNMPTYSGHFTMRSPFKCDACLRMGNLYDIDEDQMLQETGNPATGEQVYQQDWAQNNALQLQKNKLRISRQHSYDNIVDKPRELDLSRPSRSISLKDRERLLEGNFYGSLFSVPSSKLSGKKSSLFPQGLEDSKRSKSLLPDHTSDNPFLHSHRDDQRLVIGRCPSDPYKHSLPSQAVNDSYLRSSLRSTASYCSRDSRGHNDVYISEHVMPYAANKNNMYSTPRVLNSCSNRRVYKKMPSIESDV
Procedure: Glutamate stimulates an inward Ca current through the NMDA receptor channel by binding to a specific ligand-binding site at the NR1/NR2 subunit interface and opening the ion channel to the influx of calcium. Glutamate (10uM) was added to oocytes transfected with the NMDAR (subtype NR1/NR2A) in the presence of 100uM glycine and increasing amounts of Compound 2.

CC(C)C[C@@H](N)[C@H](O)C(=O)N[C@H](C(=O)N[C@H](C(=O)N[C@@H](CC(=O)O)C(=O)O)C(C)C)C(C)C [Amastatin, reference compound]
IC50 (aminopeptidase A; rat hippocampal slices, read-out: IC50, inhibition of cleavage of Compound 1): 0.3 µM

CC1(C)CCC(NC(=O)[C@@H](N)CCC(=O)O)CC1 [Compound 1, (S)-4-amino-5-(4,4-dimethylcyclohexylamino)-5-oxopentanoic acid]
effect on NMDA-induced neuronal damage (CA1 pyramidal neurons): no effect
step-down latency after electroconvulsive shock [1]: dose-dependently increased step-down latency
percent of reinforced responses (Efficiency Index) (rats [2]): increased in a dose-dependent manner
retention latency, reversal of scopolamine-induced memory impairment (rats [3]): dose-dependently increased latency
Compound 1 cleavage inhibited (aminopeptidase A; in the absence of Ca++ ions, at 1h and 3h): 76%
Compound 1 cleaved to yield Compound 2 (aminopeptidase A; rat, 1 h, pH 7.2): 2,5% ± 0,3%
Compound 1 cleaved to Compound 2 (aminopeptidase A; rat, 3 h, pH 7.2): 9,0% ± 0,0%
number of sessions to reach acquisition criterion (rats [4]; 10 and 30 mg/kg (P <0.05, P <0.01, respectively)): decreased
test acquisition in the radial maze (rats [4]): faster test acquisition
Tmax (in vivo): 1 h
plasma lag-time (in vivo): 0.12 h
time to maximum concentration in the CSF (in vivo): 45 to 60 min
Kp (in vivo; ip): 0.48
lag time for crossing the blood-CSF barrier (in vivo; ip): 0.23 h
Kp (in vivo; po): 0.62
lag time for crossing the blood-CSF barrier (in vivo; po): 0.1 h
percent of conditioned avoidance (rats [5]): increased
uncoordinated escape responses or spontaneous inter-trial responses (rats [5]; rat, in vivo): did not affect
mortality ([6]; 50mg/kg, ischemia alone 50% 7-day mortality): zero

CC1(C)CCC(N)CC1 [Compound 2, 4,4-dimethyl-cyclohexylamine]
IC50 (CA1 pyramidal neurons; Rattus norvegicus, Pyramidal neuron, slices of 8 day old rats, read-out: IC50, prevention of NMDA-induced damage): 189 ± 42.4 µM
step-down latency after electroconvulsive shock [1]: without effect
inhibition of MK-801 binding (NMDA receptor): inhibited MK-801 binding in a dose-dependent fashion
retention latency, reversal of scopolamine-induced memory impairment (rats [3]): unable to reverse
test acquisition in the radial maze (rats [4]): without effect
percent of conditioned avoidance (rats [5]): without activity
protective (7-day mortality) ([6]; 16 mg/kg, 1 hour prior to ischemia, ischemia alone 50% mortality): 100%
protection from neuronal degeneration and death ([6]; administered 1 hour prior to ischemia): dose-dependently protected
IC50 (NMDAR (subtype NR1/NR2A); 100 millivolts): 30 µM
IC50 (NMDAR (subtype NR1/NR2A); -60 millivolts): 117 µM
